# Measurements taken from patent US20060025401A1, “Use of inhibitors of the sodium-dependent chloride/bicarbonate exchanger for the treatment of thrombotic and inflammatory disorders” (Sanofi-Aventis Deutschland GmbH, priority 2002, published 2006).
# How the values were obtained:
# [1] = tested on: human umbilical vein endothelial cells (HUVEC); test: Measurement of vWF release after reperfusion (ELISA of cell supernatant); assay type: cell-based
# Procedure: All the examples were carried out with human umbilical vein endothelial cells (HUVEC). These comprise primary cell cultures isolated from the umbilical vein.
# For the following examples, the cells were cultivated either on gelatinized glass plates (measurement of the intracellular proton concentration) or on cell culture plates (12-well culture plates, Falcon, N.J., USA; measurement of vWF release) after the first passage.
# The measurements were carried out in a Heraeus Heracell incubator. This made it possible to […] the umbilical vein endothelial cells under controlled physiological conditions (temperature 37° C., relative humidity 100%, pCO2 constant at 5%) and to ensure rapid change of different cell culture media. […]
# The samples taken from the supernatant were used to determine the vWF concentration. […] The vWF content of standard human plasma (Behring, Marburg) is calculated using an international standard (2nd International Standard 87/718; National Institute for Biological Standards and Control, London).
# Table 4: vWF secretion was measured during a 10-minute reperfusion time with stimulation. […]
# [2] = tested on: human umbilical vein endothelial cells (HUVEC); test: Measurement of the intracellular pH (BCECF fluorescence) during reperfusion simulation after acidosis; assay type: cell-based; conditions: reperfusion buffer pH 7.4 with 10 μM histamine after 60 minutes of acidosis (pHex 6.4); inhibitors each 10 μM; found from first 30 seconds after reperfusion; Mean ± SEM; control buffer 18 ± 1.5
# Procedure: All the examples were carried out with human umbilical vein endothelial cells (HUVEC). These comprise primary cell cultures isolated from the umbilical vein. For the following examples, the cells were cultivated either on gelatinized glass plates (measurement of the intracellular proton concentration) or on cell culture plates (12-well culture plates, Falcon, N.J., USA; measurement of vWF release) after the first passage. To measure the intracellular proton concentration (pHi), the HUVECs were loaded with the pH-sensitive fluorescent dye BCECF-AM (2′,7′-bis(carboxyethyl)-5(6)-carboxyfluorescein). A Deltascan spectrofluorometer (PTI, Hamburg) was employed for the subsequent fluorescence measurement. This measuring system consists essentially of a UV light source, a monochromator, a photon detector and the Felix and Oscar software packages (PTI, Hamburg) for controlling the system via a computer. After alternate excitation with the wavelengths 439.5 nm (pH-independent) and 490 nm (pH-sensitive), the ratio of the measured emissions of the BCECF (ratio) was reported and the pH was found after a calibration. The measuring cell is designed so that the parameters of temperature and carbon dioxide partial pressure in the system are controlled during continuous perfusion. […]
Structure (SMILES),"vWF secretion during reperfusion of preacidotic cells, relative to control cells (vWFco = 100%) ([1]; 10 μM compound, 10-minute reperfusion time with stimulation (10 μM histamine), preacidotic cells without inhibitor 193 ± 8.0%)","reduction of the increased vWF secretion during reperfusion ([1]; blockade of the NCBE transporter, 10 μM, reperfusion of preacidotic cells)","Time to Δ PHi, max/2 (time to the half-maximum pHi change) [2]"
"COCCOc1nc(-c2ccccc2)n(Cc2ccc(-c3ccccc3S(=O)(=O)NC#N)cc2S(C)(=O)=O)c1C=O [Compound 1, 4′-[5-formyl-4-(2-methoxyethoxy)-2-phenyl-1-imidazolylmethyl]-3′-methylsulfonylbiphenyl-2-sulfonylcyanamide]",157 ± 18%,~50%,
"CC(C)c1ccc(C(=O)NC(=N)N)cc1S(C)(=O)=O [NHE, cariporide]",,,190 ± 2.9 s
